Measured values as given in patent US20110020849A1, “BIOMARKERS FOR DIAGNOSTIC AND THERAPEUTIC METHODS” (Wayne State University, priority 2007, published 2011).

Legend:
[1] = system: rabbit RBCs; test: Deformation-induced ATP release from rabbit RBCs pumped through microbore tubing (luciferin/luciferase chemiluminescence); type: cell-based
Procedure: (§1) Preparation of RBCs. Rabbits (New Zealand whites, males, 2.0-2.5 kg) were anesthetized with ketamine ([…], i.m.) and xylazine (1 mg/kg, i.m.) followed by pentobarbital sodium (15 mg/kg i.v.). A cannula was placed in the trachea and the animals were ventilated with room air. A catheter was placed into a carotid artery for administration of heparin and for phlebotomy. After heparin (500 units, i.v.), the animals were exsanguinated. Human blood was obtained by venipuncture without the use of a tourniquet (antecubital fossa) and collected into a heparinized syringe. Blood was centrifuged at 500×g at 4° C. for 10 min. The plasma and buffy coat were discarded. The RBCs were resuspended and washed three times in a physiological salt solution [PSS, containing in mM: 4.7 KCl, 2.0 CaCl2, 140.5 NaCl […], 21.0 tris(hydroxymethyl)aminomethane, 11.1 dextrose with 5% bovine serum albumin (final pH 7.4)]. Cells were prepared on the day of use and experiments were finished within 8 hours of removal from the animal or human subjects. All procedures were approved by the Animal Investigation Committee or the Human Investigation Committee at Wayne State University.
(§2) Measurement of ATP. Human C-peptide (American Peptide Co., Sunnyvale, Calif.), 0.25 mg (MW=3020 g/mol), was dissolved in […] of purified water (18.2 megaohm) to yield a concentration of 83 μM. […] The resulting chemluminescence reaction flowed through a final potion of fused-silica microbore tubing that was placed over a photomultiplier tube, where the emission was detected. The resultant current was measured as a potential by a data acquisition board operated by a program written with the LabView software package (National Instruments, Austin, Tex.).
Introduction. […] Upon deformation in the tubing, the RBCs release ATP that is measured using a well-established chemiluminescence assay for ATP. The concentrations of RBC-derived ATP are measured in the presence and absence of synthetic C-peptide.
C-Peptide-Induced Release of ATP. RBCs obtained from rabbits are pumped through microbore tubing having an inside diameter of 50 μm and the resultant ATP released by the cells upon deformation in the tubing is measured. […] Another aliquot from the same RBC sample is incubated in 1 nM C-peptide and the resultant ATP release measured every 2 h for a period up to 6 h. […] As shown, the ATP release (determined by a chemiluminescence assay) from those cells incubated in the c-peptide increased approximately 2.9 times over a period of […]. […] If cell lysis were occurring, the glybenclamide would have no affect on the measured ATP as it would be present in extracellular form whether or not glybenclamide was introduced to the RBCs. […]

[2] = Electrospray ionization mass spectrometry of C-peptide and metal adducts in aqueous solution; details: ESI-MS
Procedure: Mass Spectrometric Analysis of Metal-Peptide Binding.
Specifically, the mass spectrum shown in FIG. 3a is that of peptide prepared in water and analyzed within 0.5 h of preparation. In 3a, the [M+3H]^3+ peak is present as are other forms of the peptide with sodium atoms, potassium atoms, or a combination thereof.

[3] = system: diabetic human RBCs; test: ATP release from RBCs of patients with type II diabetes; type: cell-based; details: n=7; for ATP release: diabetic human RBCs, ±SEM, FIG. 2
Procedure: as §1
as §2, with “μM. Next, an appropriate volume of this C-peptide solution was added to 10 mL of a 7% solution of RBCs to create a solution containing the C-peptide at concentrations in the 1-5 nM range.” for “μM.”, “Tex.). […]” for “Tex.).”

[4] = system: RBCs; test: Loss of ATP-release bioactivity of C-peptide preparation in water (repeats of Experiments 1 and 2); type: cell-based
[5] = system: RBCs; test: Cell lysis control: RBC solutions measured under non-flow conditions with a luminometer; type: cell-based; details: 200 μL RBC solution and 200 μL luciferin/luciferase solution
Procedure: To ensure that the resulting increase in ATP release was due to C-peptide interacting with the RBCs and not cell lyses, the RBC solutions were measured under non-flow conditions using a luminometer with 200 μL of the RBC solution and 200 μL of the luciferin/luciferase solution. […] To ensure that lysis was not occurring in the tubing, a solution of 0.01 M glybenclamide was prepared by adding 49 mg of glybenclamide (Sigma) to 2 mL of a 0.1 M solution of sodium hydroxide. To this, 7.94 mL of a dextrose solution (1 g dextrose in 20 mL of purified water) was added. The mixture was heated carefully to 52° C. until all of the glybenclamide was dissolved. Once the solute was completely dissolved, 1 mL of this solution was added to 9 mL of PSS, resulting in a solution with a concentration 0.001 M. From this diluted solution, 2.5 mL were added to 2.5 mL of 7% hematocrit RBC solution, resulting in a 3.5% hematocrit solution of RBCs. This solution was allowed to incubate for 15 minutes. As a comparison, 2.5 mL of wash buffer without glybenclamide was added to 2.5 mL of 7% hematocrit RBCs. After 15 minutes, the RBC solutions were assayed.

Row | effect on the C-peptide-induced increase in ATP release ([1]; RBCs incubated in glybenclamide) | Compound | time in solution without degradation or cleavage [2] [days] | restoration of ATP release levels ([3]; RBCs of patients with type II diabetes, compared with healthy non-diabetic controls) | ATP release ([3]; after 6 hours of incubation with freshly prepared C-peptide preparation) [nM] | ATP release ([3]; at 0 hours, freshly prepared C-peptide preparation) [nM] | time to loss of bioactivity after preparation in water [4] [h] | luminescence signal under non-flow conditions (cell lysis check) [5] | ability to induce ATP release from deformed RBCs ([1]; C-peptide solution kept at 4° C. for >30 days) | increase in ATP release ([1]; rabbit RBCs, 1 nM C-peptide, over a period of 8 h, normalized values, FIG. 1) | increase in ATP release versus control (buffer without C-peptide) ([1]; rabbit RBCs, 1 nM C-peptide, over the 6 h period)
1 | can be inhibited | COc1ccc(Cl)cc1C(=O)NCCc1ccc(S(=O)(=O)NC(=O)NC2CCCCC2)cc1 [glybenclamide] | – | – | – | – | – | – | – | – | –
2 | – | C-peptide | > 30 | restore these release levels to a value that is statistically equivalent to that of healthy, non-diabetic control patients | 256.1 ± 38.7 | 63.6 ± 12.6 | 24 to 36 | No detectable signals were obtained | no longer has the ability to induce ATP release from deformed RBCs | approximately 2.9 times | nearly three times that of the RBCs incubated with a control
